Measurements published in patent US20070003626A1, “Sterile in-situ microcarrier forming gelled polymeric dispersions and processes to manufacture the same” (priority 2004, published 2007).

Experiment: Effect of gamma irradiation on paclitaxel stability in various compositions (paclitaxel assay before and after irradiation)
Assay type: physicochemical
Description: Paclitaxel either as a powder or in solution in different solvents such as DMA, PEG 400, DMA:PEG 400 (25:75% w/w) and in a polymer solution in DMA:PEG 400 (25:75% w/w) was subjected to gamma irradiation sterilization at a dose of 25 KGy and analyzed for paclitaxel content before and after irradiation.

- Assay WRT initial, % (percentage remaining after treatment) (after gamma irradiation at 25 KGy): 94.74%
- Assay, % Post-irradiation (paclitaxel content after gamma irradiation at 25 KGy): 94.74 ± 2.36%
- Assay, % Initial (paclitaxel content before gamma irradiation): 100%
SMILES: CC(=O)O[C@H]1C(=O)[C@@]2(C)[C@H]([C@H](OC(=O)c3ccccc3)[C@]3(O)C[C@H](OC(=O)[C@H](O)[C@@H](NC(=O)c4ccccc4)c4ccccc4)C(C)=C1C3(C)C)[C@]1(OC(C)=O)CO[C@@H]1C[C@@H]2O [Paclitaxel]
